We go through eight molecules from patent publication US10538443B2, “Method of degradation and inactivation of antibiotics in water by immobilized enzymes onto functionalized supports” (Luxembourg Institute of Science and Technology (LIST), priority 2014, dated 2020).

Positions of bridges follow the written chain, without caps; N, C: chain ends. Non-standard residues stand in square brackets, D forms with d. Residues, ends and D or L forms follow the SMILES beside them. *: point of attachment. Ileψ(thiazoline)Cys = CC[C@H](C)[C@H](N)C1=N[C@H](C(=O)*)CS1; dOrn = NCCC[C@@H](N)C(=O)O

One data set deals with T1, NDM-1 (Klebsiella pneumoniae, UniProt C7C422).
T1 construct: His tag (inferred from the HisTrap FF purification and the pOPINF vector; no tag is printed as such); made in house; host or cells: Escherichia coli BL21 2D3
Format: biochemical, K. pneumoniae. The following applies: free NDM-1 300 μg·ml^−1, antibiotic 100 μg·ml^−1, final volume 1 mL, deionized water, HEPES 12.5 mM, room temperature, 100 rpm. How it is done:
The production of protein performed as described by Green V. L. et al. (Acta Crystallogr. 2011, F67, 1160-1164) with few modifications: An additional step of freezing is added before cell lysis with French press. The NDM-1 isolation and purification are only performed with HisTrap FF column (GE Healthcare). Three washes in Amicon® Ultra-4 Centrifugal Filter Units 3,000 NMWL (1000×g for 15 min) allow to remove excess imidazole. Enzymes are then re-suspended in PBS.
(§1) Degradation experiments have been performed, using a concentration of free NDM-1 enzyme of 300 μg·ml^−1 in an aqueous medium comprising deionized water and HEPES 12.5 mM. Antibiotic is added at final concentration of 100 μg·ml^−1 (final volume: 1 mL). Degradation assay are performed under agitation of 100 rpm at room temperature during 1 hour. UV absorbance measurements are achieved to determine the evolution of the concentration of the antibiotics in the medium.

Data set [1] can be described thus: Autolysis of antibiotic after 1 hour. It counts as physicochemical. The following applies: antibiotic 100 μg·ml^−1, deionized water, HEPES 12.5 mM, room temperature. How it is done: as §1
In data set [2] the test system is Selenastrum capricornutum. Put plainly: Acute toxicity test on microalgae (ISO 8692: 2012), growth inhibition. The following applies: 90 μg·mL^−1. It counts as cell-based. Here is the method: (§2) For this, the tests were carried out on the degradation media before (T0) and after metabolization by enzymes immobilized on PGMA and DOPA functionalized Kaldnes after 30 min, 1 h and 24 h of contact.
(§3) The tests are performed with the maximum volume of test solution that can be provided and defined by the standards cited earlier. The results are expressed as a percentage of growth inhibition for algae and Daphnia test, as percentage of light emission inhibition for the Microtox test and as percentage of cell viability inhibition for cytotoxicity tests.

A further data set has as its system Vibrio fischeri. The following applies: 0 min, 80 μg·mL^−1. Here is the method:
as §2, §3

Another data set concerns Daphnia magna Straus. Nature of the data set: Daphnia acute toxicity test (ISO 6341: 2012). It counts as in vivo. The following applies: amoxicillin 90 μg·mL^−1; T0 (before metabolization by enzymes). Here is the method: as §2, §3
The subject of data set [3] is rat hepatoma cell line H4IIE.Luc. Nature of the data set: Cytotoxicity test, Cell Viability Assay AlamarBlue. Format: cell-based. The following applies: amoxicillin 80 μg·mL^−1; T0 (before metabolization by enzymes). Here is the method:
as §2, §3
(In general: Resazurin is reduced to fluorescent resorufin, in cell work by metabolically active cells.)

Data set [4] can be described thus: Storage of the Kaldnes carriers at 4° C., length of preservation of activity. It counts as physicochemical. Here is the method: The biofunctionalized Kaldnes carriers, after being dried, have been kept in the fridge at 4° C. Antibiotics degradation tests were performed onto the carriers to measure the activity.
The nature of data set [5]: Degradation of amoxicillin (100 μg/ml) in filtered tap water with HEPES by immobilized or free enzyme, UV absorbance every 24 hours. It counts as biochemical. Here is the method:
Once the Kaldnes carriers have been activated according to the above protocol, the enzymatic activity is measured. Two antibiotics present in an aqueous medium have been tested.
A sample of tap water, prealably filtered on a syringe filter unit (disposable pore size of 0.22 μm) and with HEPES (12.5 mM), and the antibiotics at a concentration of 100 μg/ml.
For comparison purposes, degradation of the antibiotic with the free enzyme will be tested. The sample of tap water, prealably filtered on a syringe filter unit (disposable pore size of 0.22 μm) and with HEPES (12.5 mM), and the antibiotics at a concentration of 100 μg·ml^−1, is prepared.
UV absorbance measurements are achieved to determine the evolution of the concentration of the antibiotics. […] The absorbance, and the thus the concentration, is determined every 24 hours.

Where [6] appears, read: Kaldnes biochips, PGMA based layer, Tween 20 (5%), enzyme 1.985 mg.
Where [7] appears, read: Kaldnes biochips, dopamine as layer precursor, no Tween 20, enzyme 1.985 mg.
Where [8] appears, read: enzyme in its free form 2 mg, no Tween 20.

Regarding `Cc1cc(NS(=O)(=O)c2ccc(N)cc2)no1` [sulfamethoxazole], the “degraded amount after 1 hour” value at NDM-1 worked out at 3.2 ± 0.8 µg. In addition, in data set [1], the “Autolysis of antibiotic after 1 hour” value was 0 µg/mL.

With `CCC[C@@H]1C[C@@H](C(=O)N[C@@H]([C@H]2O[C@H](SC)[C@H](O)[C@@H](O)[C@H]2O)[C@@H](C)O)N(C)C1` [lincomycin], on NDM-1, the “degraded amount after 1 hour” value worked out at 5 ± 1.5 µg. Also, in data set [1], the “Autolysis of antibiotic after 1 hour” value was determined as 0.01 µg/mL.

As to `COc1cc(Cc2cnc(N)nc2N)cc(OC)c1OC` [trimethoprime], the “degraded amount after 1 hour” value at NDM-1 was determined as 2.5 ± 0.95 µg. The “Autolysis of antibiotic after 1 hour” value in data set [1] was 0.01 µg/mL.

On to `CC1(C)S[C@@H]2[C@H](NC(=O)[C@H](N)c3ccc(O)cc3)C(=O)N2[C@H]1C(=O)O` [amoxicillin], for which the “degraded amount after 1 hour” value on NDM-1 worked out at 10 ± 2 µg. The “Percentage of inhibition, Alga test” value in data set [2] (0 min) came out at 55 ± 6%; in data set [2] (24 h) it was 0%. The “Percentage of inhibition, Microtox” value in the data set with Vibrio fischeri is on record as 41 ± 12%. Further, the “Autolysis of antibiotic after 1 hour” value in data set [1] is 0 µg/mL. In the data set with Daphnia magna Straus, the “Percentage of inhibition, Daphnia Test” value was determined as 56 ± 4%. Moreover, in data set [3], the “Percentage of inhibition, Cell Viability Assay” value came to 19 ± 5%.

As for `CC[C@H]1OC(=O)C[C@@H](O)[C@H](C)[C@@H](O[C@@H]2O[C@H](C)[C@@H](O[C@H]3C[C@@](C)(O)[C@@H](O)[C@H](C)O3)[C@H](N(C)C)[C@H]2O)[C@@H](CC=O)C[C@@H](C)C(=O)/C=C/C(C)=C/[C@@H]1CO[C@@H]1O[C@H](C)[C@@H](O)[C@@H](OC)[C@H]1OC` [tylosine], on NDM-1, the “degraded amount after 1 hour” value amounted to 7.4 ± 1.1 µg. Besides, the “Autolysis of antibiotic after 1 hour” value in data set [1] turned out to be 0.01 µg/mL.

Regarding `CC[C@H]1OC(=O)[C@H](C)[C@@H](O[C@H]2C[C@@](C)(OC)[C@@H](O)[C@H](C)O2)[C@H](C)[C@@H](O[C@@H]2O[C@H](C)C[C@H](N(C)C)[C@H]2O)[C@](C)(O)C[C@@H](C)C(=O)[C@H](C)[C@@H](O)[C@]1(C)O` [erythromycin], the “degraded amount after 1 hour” value at NDM-1 is 6.8 ± 2.3 µg. Also, the “Autolysis of antibiotic after 1 hour” value in data set [1] was determined as 0 µg/mL.

As to `CC[C@H](C)[C@H](N)C1=N[C@H](C(=O)N[C@@H](CC(C)C)C(=O)N[C@H](CCC(=O)O)C(=O)N[C@H](C(=O)N[C@H]2CCCCNC(=O)[C@H](CC(N)=O)NC(=O)[C@@H](CC(=O)O)NC(=O)[C@H](Cc3cnc[nH]3)NC(=O)[C@@H](Cc3ccccc3)NC(=O)[C@H]([C@@H](C)CC)NC(=O)[C@@H](CCCN)NC2=O)[C@@H](C)CC)CS1` [bacitracin] ({Ileψ(thiazoline)Cys}-L[dE]IK[dOrn]I[dF]H[dD]N; lactam 4-C), the “degraded amount after 1 hour” value on NDM-1 was determined as 5 ± 0.8 µg. Further, the “Autolysis of antibiotic after 1 hour” value in data set [1] stood at 0 µg/mL.

B1: NDM-1: New-Dehli metallo-β-lactamase 1, K. pneumoniae gene produced in E. coli BL21 2D3, used free or immobilized on Kaldnes biochips (protein, UniProt C7C422 29-270, looked up)
Metallo-beta-lactamase type 2: GEIRPTIGQQMETGDQRFGDLVFRQLAPNVWQHTSYLDMPGFGAVASNGLIVRDGGRVLVVDTAWTDDQTAQILNWIKQEINLPVALAVVTHAHQDKMGGMDALHAAGIATYANALSNQLAPQEGMVAAQHSLTFAANGWVEPATAPNFGPLKVFYPGPGHTSDNITVGIDGTDIAFGGCLIKDSKAKSLGNLGDADTEHYAASARAFGAAFPKASMIVMSHSAPDSRAAITHTARMADKLR
Turning to B1, the Length of preservation in data set [4] (stored as Kaldnes + PGMA) worked out at 1 month; in data set [4] (stored as Kaldnes + PGMA + enzyme), 2 months; in data set [4] (stored as Kaldnes + PGMA + enzyme + Tween 20), 2 weeks; in data set [4] (stored as Kaldnes + dopamine) it was 3 weeks; in data set [4] (stored as Kaldnes + dopamine + enzyme), 1 month; in data set [4] (stored as Kaldnes + dopamine + enzyme + Tween 20) it was 2 weeks. For the same molecule, the figures for the “Amount of degraded amoxicillin” value in data set [5] (setting [6]), in data set [5] (setting [7]) and in data set [5] (setting [8]) were 3502 ± 191 µg, 3021 ± 51 µg and 390 ± 45 µg, respectively. For the same molecule, the values for the Duration of activity in data set [5] (setting [6]), in data set [5] (setting [7]) and in data set [5] (setting [8]) were 22 days, 10 days and 4 days, respectively. The “amount of amoxicillin degraded, immobilized versus free form” value in data set [5] (Kaldnes carrier, Table V) is on record as “about 8 times”.
